Data on 21 compounds can be found in ChEMBL document CHEMBL1144861, “Synthesis and biological activities of novel 4"-alkylidene avermectin derivatives” (2003).

Converted amounts (≈) assume the structure as drawn.

The test system of experiment [1] is Caenorhabditis elegans. The experiment in a line: In vitro inhibitory activity required against Caenorhabditis elegans. The format is functional.
In experiment [2] the test system is Artemia salina. In words: In vitro inhibitory activity required against Artemia salina. The format is functional.

On to `CO[C@H]1C[C@H](O[Si](C)(C)C(C)(C)C)O[C@@H](C)/C1=C\COC(=O)c1ccncc1`, for which the values for the MIC in experiment [1] and in experiment [2] were 0.05 mg/L (≈ 0.123 µM) and 0.01 mg/L (≈ 0.0245 µM), respectively.

On to `CO[C@H]1C[C@H](O[Si](C)(C)C(C)(C)C)O[C@@H](C)/C1=C/C(=O)O`, for which the MIC in experiment [1] was 0.01 mg/L (≈ 0.0316 µM); in experiment [2] it was 0.002 mg/L (≈ 0.00632 µM).

`CO[C@H]1C[C@H](O[Si](C)(C)C(C)(C)C)O[C@@H](C)/C1=C/CN1CCNCC1`: the minimal inhibitory concentration (MIC) worked out at 0.01 mg/L (≈ 0.027 µM) in experiment [1] and 0.002 mg/L (≈ 0.0054 µM) in experiment [2].

Consider `CO[C@H]1C[C@H](O[Si](C)(C)C(C)(C)C)O[C@@H](C)/C1=C/C(=O)N1CCOCC1`, for which the MIC in experiment [1] and in experiment [2] was 0.01 mg/L (≈ 0.0259 µM) throughout.

On to `CO[C@H]1C[C@H](O[Si](C)(C)C(C)(C)C)O[C@@H](C)/C1=C/C(=O)N1CCNCC1`, for which the results for the MIC in experiment [1] and in experiment [2] were 0.01 mg/L (≈ 0.026 µM) and 0.002 mg/L (≈ 0.0052 µM), respectively.

Take `CO[C@H]1C[C@H](O[Si](C)(C)C(C)(C)C)O[C@@H](C)/C1=C/CN1CCCCC1`: the MIC came out at 0.05 mg/L (≈ 0.135 µM) in experiment [1] and 0.01 mg/L (≈ 0.0271 µM) in experiment [2].

Take `CO[C@H]1C[C@H](O[Si](C)(C)C(C)(C)C)O[C@@H](C)/C1=C/C(=O)N1CCCCC1`: the MIC in experiment [1] came to 0.01 mg/L (≈ 0.0261 µM); in experiment [2], 0.002 mg/L (≈ 0.00521 µM).

Turning to `CO[C@H]1C[C@H](O[Si](C)(C)C(C)(C)C)O[C@@H](C)/C1=C\COC(=O)c1cccnc1`, the MIC came out at 0.01 mg/L (≈ 0.0245 µM) in experiment [1] and 0.002 mg/L (≈ 0.00491 µM) in experiment [2].

Take `C=CCOC(=O)/C=C1/[C@H](C)O[C@@H](O[Si](C)(C)C(C)(C)C)C[C@@H]1OC`: the results for the MIC in experiment [1] and in experiment [2] were 0.01 mg/L (≈ 0.028 µM) and 0.002 mg/L (≈ 0.00561 µM), respectively.

For the compound `CO[C@H]1C[C@H](O[Si](C)(C)C(C)(C)C)O[C@@H](C)/C1=C/C=O`, the minimum inhibitory concentration (MIC) in experiment [1] and in experiment [2] was 0.01 mg/L (≈ 0.0333 µM) in each case.

On to `CO[C@H]1C[C@H](O[Si](C)(C)C(C)(C)C)O[C@@H](C)/C1=C\C(=O)O`, for which the MIC was found to be 0.01 mg/L (≈ 0.0316 µM) in experiment [1] and 0.002 mg/L (≈ 0.00632 µM) in experiment [2].

For `CO[C@H]1C[C@H](O[Si](C)(C)C(C)(C)C)O[C@@H](C)/C1=C/CCl`, the MIC in experiment [1] and in experiment [2] was 0.01 mg/L (≈ 0.0312 µM) each time.

Consider `CCOC(=O)/C=C1/[C@H](C)O[C@@H](O[Si](C)(C)C(C)(C)C)C[C@@H]1OC`, for which the minimum inhibitory concentration (MIC) in experiment [1] and in experiment [2] was 0.01 mg/L (≈ 0.029 µM) each time.

Take `CO/N=C/C=C1\[C@H](C)O[C@@H](O[Si](C)(C)C(C)(C)C)C[C@@H]1OC`: the minimum inhibitory concentration (MIC) in experiment [1] and in experiment [2] was 0.01 mg/L (≈ 0.0303 µM) each time.

Regarding `CO[C@H]1C[C@H](O[Si](C)(C)C(C)(C)C)O[C@@H](C)/C1=C\C=N\O`, the results for the minimal inhibitory concentration (MIC) in experiment [1] and in experiment [2] were 0.01 mg/L (≈ 0.0317 µM) and 0.002 mg/L (≈ 0.00634 µM), respectively.

Take `CC[C@H](C)[C@H]1O[C@]2(C=C[C@@H]1C)C[C@@H]1C[C@@H](C/C=C(\C)[C@@H](O[C@H]3C[C@H](OC)[C@@H](O[C@H]4C[C@H](OC)[C@@H](O)[C@H](C)O4)[C@H](C)O3)[C@@H](C)/C=C/C=C3\CO[C@@H]4[C@H](O)C(C)=C[C@@H](C(=O)O1)[C@]34O)O2` [ABAMECTIN COMPONENT B1A]: the minimum inhibitory concentration (MIC) in experiment [1] was determined as 0.002 mg/L (≈ 0.00229 µM); in experiment [2], 0.0005 mg/L (≈ 0.000573 µM).

Take IVERMECTIN: the MIC in experiment [1] and in experiment [2] was 0.002 mg/L in each case.

Take `CO[C@H]1C[C@H](O[Si](C)(C)C(C)(C)C)O[C@@H](C)/C1=C/CO`: the minimal inhibitory concentration (MIC) in experiment [1] and in experiment [2] was 0.01 mg/L (≈ 0.0331 µM) throughout.

As for `CO[C@H]1C[C@H](O[Si](C)(C)C(C)(C)C)O[C@@H](C)/C1=C\C#N`, the MIC in experiment [1] and in experiment [2] was 0.002 mg/L (≈ 0.00672 µM) throughout.

In the case of `CO[C@H]1C[C@H](O[Si](C)(C)C(C)(C)C)O[C@@H](C)/C1=C/C#N`, the MIC in experiment [1] and in experiment [2] was 0.0005 mg/L (≈ 0.00168 µM) in each case.

Regarding `CO[C@H]1C[C@H](O[Si](C)(C)C(C)(C)C)O[C@@H](C)/C1=C/CN1CCOCC1`, the minimal inhibitory concentration (MIC) in experiment [1] and in experiment [2] was 0.01 mg/L (≈ 0.0269 µM) in each case.

The term MIC denotes the lowest concentration found to suppress growth. A high value points to weaker potency.
